Patent publication US20240327376A1, “PICOLINAMIDE COMPOUNDS AS SELECTIVE PHD1 INHIBITORS, COMPOSITIONS, AND METHODS OF USE” (Akebia Therapeutics, Inc., priority 2021, published 2024)

Target: T1, full-length human PHD1 (selectivity versus full-length human PHD2) (Homo sapiens, UniProt Q96KS0)
T1 construct: purchased Active Motif (Carlsbad, CA, USA) 81064; host or cells: baculovirus expression system
Experiment: TR-FRET assay of PHD enzymes (IC50; Ki by Cheng-Prusoff; selectivity as ratio of Kis)
Format: biochemical
Conditions: ratio of Kis in the PHD1 and PHD2 TR-FRET assays; Ki=IC50/(1+[2-OG]/Km), 1 uM 2-OG
From the text: Time-resolved fluorescence resonance energy transfer (TR-FRET) assay was utilized to determine the enzymatic half maximal inhibitory concentration (IC50) value of PHD inhibitors against the full-length human prolyl-4-hydroxylase domain (PHD) enzymes, PHD1 and PHD2. The TR-FRET assay was developed based on the specific binding of hydroxylated HIF-1α peptide with the complex formed by VHL, EloB and EloC (VBC), to generate a fluorescent signal. Terbium (Tb)-Donor (monoclonal antibody anti-6His-Tb-cryptate Gold) and D2-acceptor (streptavidin [SA]-D2) of TR-FRET are linked to the VBC complex and to HIF-1a peptide, respectively. The VBC complex binds specifically to the HIF-1a peptide when it is hydroxylated, allowing energy transfer from TR-FRET donor to acceptor (FIG. 1).
TR-FRET Reagents. Monoclonal antibody anti-6His-Tb-cryptate Gold (catalog #61HI2TLA) and streptavidin (SA)-D2 (catalog #610SADLA) were purchased from CisBio International (Bedford, MA, USA).
N-terminus biotinylated HIF-1α C35 synthetic peptide representing amino acids 547 to 581 and including the proline 564 PHD2 hydroxylation site was purchased from California Peptide Research (Salt Lake City, UT, USA).
VBC complex. His-tagged recombinant VHL protein, EloB, EloC complex (His-VBC) was supplied by Axxam (Milan, Italy). Recombinant human VHL (National Center for Biotechnology Information [NCBI] accession number NP_00542.1) contained a His tag at the C-terminus of amino acids 55 to 213 and is referred to as VHL-His. VHL-His was co-expressed in E. coli with full-length human EloB (NCBI accession number Q15370.1) and full-length human EloC (NCBI accession number Q15369.1) and purified by affinity chromatography on a nickel-nitrilotriacetic acid (Ni-NTA) column as the His-VBC complex. Purity (˜80%) was assessed by sodium dodecyl sulfate polyacrylamide gel electrophoresis (SDS-PAGE).
PHD1. Recombinant human PHD1 protein (catalog #81064, Lot #24717001) was purchased from Active Motif (Carlsbad, CA, USA). PHD1 was expressed in a baculovirus expression system as the full-length protein (NCBI accession number NP_542770.2) with an N-terminal FLAG tag (molecular weight 44.9 kDa). Purity (>90%) was assessed by SDS-PAGE.
PHD2. The full-length human PHD2 enzyme was produced with a baculovirus infected insect cell (BIIC) expression system by Beryllium (Bedford, MA, USA). The PHD2 construct contained amino acids 1 to 426 of PHD2 (UniProt Knowledgebase[UniProtKB]/Swiss-Prot accession number Q9GZT9.1), and a His tag and a Tobacco Etch Virus (TEV) protease cleavage site at the N-terminus. The construct was expressed in Sf9 insect cells, purified by Ni-NTA column and digested with TEV protease to remove the His tag.
TR-FRET Assay Procedure. PHD inhibitor compound was preincubated with PHD enzyme in a 10 μL reaction volume in white 384-well Optiplate microplates (catalog #6007290, Perkin Elmer, Waltham, MA, USA). For this, 5 μL of PHD inhibitor compound was serially diluted with dilution buffer (50 mM HEPES [4-(2-hydroxyethyl)-1-piperazineethanesulfonic acid] pH 7.5, 50 mM sodium chloride [NaCl], 0.01% Tween-20, 0.01% purified bovine serum albumin [BSA]) and mixed with 5 μL PHD enzyme mix prepared as a 4× concentrate in the dilution buffer containing PHD enzyme (60 nM PHD1, 20 nM PHD2, 140 nM PHD3), 40 μM ferrous ammonium sulfate (FAS), 4 mM sodium (Na) ascorbate. The plates were incubated for 30 minutes at room temperature without rotation.
Five microliters of the VBC/anti-6His-Tb-cryptate Gold mix prepared as a 4× concentrate in dilution buffer containing 20 nM His-VBC, 1.32 nM monoclonal antibody anti-6His-Tb-cryptate Gold was then added. This step was followed immediately by the addition of […] of the HIF-1a C35 substrate mix prepared as a 4× concentrate in the dilution buffer containing 120 nM biotin-labeled HIF-1a C35, 132 nM SA-D2, 4 μM 2-oxoglutarate (2-OG) to reach a final reaction volume of 20 μL. […]

T1 sequence (Q96KS0 whole entry): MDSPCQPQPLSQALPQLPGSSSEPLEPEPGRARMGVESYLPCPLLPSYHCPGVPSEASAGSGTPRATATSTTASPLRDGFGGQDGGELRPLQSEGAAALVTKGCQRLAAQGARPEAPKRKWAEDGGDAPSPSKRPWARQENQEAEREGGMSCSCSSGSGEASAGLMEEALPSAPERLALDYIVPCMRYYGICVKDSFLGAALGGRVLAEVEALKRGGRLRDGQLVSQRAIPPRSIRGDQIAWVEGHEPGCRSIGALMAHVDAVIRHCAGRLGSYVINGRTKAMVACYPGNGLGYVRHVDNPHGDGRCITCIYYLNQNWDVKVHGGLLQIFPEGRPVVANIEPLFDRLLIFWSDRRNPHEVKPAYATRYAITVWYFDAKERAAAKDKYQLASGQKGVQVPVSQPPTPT

Structure (SMILES) | Selectivity of PHD1 over PHD2
O=C(NCC1(C(=O)O)CC1)c1ncc(-c2ccc3ccccc3c2)cc1O [Compound 1, 1-((3-hydroxy-5-(naphthalen-2-yl)picolinamido)methyl)cyclopropane-1-carboxylic acid] | ~219 fold
O=C(NCC1(C(=O)O)CCC1)c1ncc(-c2ccc3ccccc3c2)cc1O [Compound 2, 1-((3-hydroxy-5-(naphthalen-2-yl)picolinamido)methyl)cyclobutane-1-carboxylic acid] | ~1258 fold
O=C(NCC1(C(=O)O)CC1)c1ncc(-c2cccc(Cl)c2)cc1O [Compound 3, 1-((5-(3-chlorophenyl)-3-hydroxypicolinamido)methyl)cyclopropane-1-carboxylic acid] | ~338 fold
O=C(NCC1(C(=O)O)CCC1)c1ncc(-c2cccc(Cl)c2)cc1O [Compound 4, 1-((5-(3-chlorophenyl)-3-hydroxypicolinamido)methyl)cyclobutane-1-carboxylic acid] | ~6 fold
O=C(NCC1(C(=O)O)CC1)c1ncc(-c2cnn(-c3ccccc3)c2)cc1O [Compound 5, 1-((3-hydroxy-5-(1-phenyl-1H-pyrazol-4-yl)picolinamido)methyl)cyclopropane-1-carboxylic acid] | ~61 fold
O=C(NC[C@H](O)C(=O)O)c1ncc(-c2cccc(Cl)c2)cc1O [Compound 6, (S)-3-(5-(3-chlorophenyl)-3-hydroxypicolinamido)-2-hydroxypropanoic acid] | ~11 fold
O=C(NC[C@H](O)C(=O)O)c1ncc(-c2ccc3ccccc3c2)cc1O [Compound 7, (S)-2-hydroxy-3-(3-hydroxy-5-(naphthalen-2-yl)picolinamido)propanoic acid] | ~16 fold
O=C(NC[C@@H](O)C(=O)O)c1ncc(-c2ccc3ccccc3c2)cc1O [Compound 8, (R)-2-hydroxy-3-(3-hydroxy-5-(naphthalen-2-yl)picolinamido)propanoic acid] | ~100 fold
O=C(NC[C@@H](O)C(=O)O)c1ncc(-c2cccc(Cl)c2)cc1O [Compound 9, (R)-3-(5-(3-chlorophenyl)-3-hydroxypicolinamido)-2-hydroxypropanoic acid] | ~13 fold
O=C(NC[C@H](O)C(=O)O)c1ncc(-c2cnn(-c3ccccc3)c2)cc1O [Compound 10, (S)-2-hydroxy-3-(3-hydroxy-5-(1-phenyl-1H-pyrazol-4-yl)picolinamido)propanoic acid] | ~29 fold
O=C(NC[C@@H](O)C(=O)O)c1ncc(-c2cnn(-c3ccccc3)c2)cc1O [Compound 11, (R)-2-hydroxy-3-(3-hydroxy-5-(1-phenyl-1H-pyrazol-4-yl)picolinamido)propanoic] | ~42 fold
O=C(NCC1(C(=O)O)CCC1)c1ncc(-c2cnn(-c3ccccc3)c2)cc1O [Compound 12, 1-((3-hydroxy-5-(1-phenyl-1H-pyrazol-4-yl)picolinamido)methyl)cyclobutane-1-carboxylic acid] | ~36 fold
O=C(NCC1(C(=O)O)CCCCC1)c1ncc(-c2cnn(-c3ccccc3)c2)cc1O [Compound 13, 1-((3-hydroxy-5-(1-phenyl-1H-pyrazol-4-yl)picolinamido)methyl)cyclohexane-1-carboxylic acid] | ~2 fold
O=C(NCC1(C(=O)O)CCOCC1)c1ncc(-c2cnn(-c3ccccc3)c2)cc1O [Compound 14, 4-((3-hydroxy-5-(1-phenyl-1H-pyrazol-4-yl)picolinamido)methyl)tetrahydro-2H-pyran-4-carboxylic acid] | ~51 fold
O=C(O)CC1(NC(=O)c2ncc(-c3cnn(-c4ccccc4)c3)cc2O)CC1 [Compound 15, 2-(1-(3-hydroxy-5-(1-phenyl-1H-pyrazol-4-yl)picolinamido)cyclopropyl)acetic acid] | ~10 fold
O=C(O)CC1(NC(=O)c2ncc(-c3cnn(-c4ccccc4)c3)cc2O)CCC1 [Compound 16, 2-(1-(3-hydroxy-5-(1-phenyl-1H-pyrazol-4-yl)picolinamido)cyclobutyl)acetic acid] | ~2 fold
O=C(NCC1(C(=O)O)CCCC1)c1ncc(-c2cnn(-c3ccccc3)c2)cc1O [Compound 17, 1-((3-hydroxy-5-(1-phenyl-1H-pyrazol-4-yl)picolinamido)methyl)cyclopentane-1-carboxylic acid] | ~8 fold
